Data on 9 compounds can be found in PubChem BioAssay (NCI).

Some test systems named below: IGROV1 ovarian; LOX IMVI melanoma; A549 NSCLC; HS 578T breast; MDA-MB-435; SK-MEL-2 melanoma; OVCAR-8 ovarian; HOP-92 NSCLC; M14 melanoma; RXF 393 renal.
What all share (assay): DTP human tumour cell line panel, 48 h

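The compound was tested at five concentrations on cells cultured in 96-well plates, with a 48-hour exposure period. At the GI50, growth is halved. Definition used: TGI = concentration required for complete inhibition of growth.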 Bounds are passed on as bounds.

By TGI is commonly meant the concentration giving total growth inhibition. Low readings indicate more potent growth arrest, high ones less potent growth arrest. Usually GI50 stands for the concentration giving 50% growth inhibition.

In the case of `O=S(=O)(O)O`, the TGI with IGROV1 ovarian came out at 2170 µM; in the assay with LOX IMVI melanoma, 542 µM; in the assay with A549 NSCLC, 1870 µM; with HS 578T breast it was 2240 µM; with MDA-MB-435, 634 µM; in the assay with SK-MEL-2 melanoma, 1450 µM. Moreover, the total growth inhibition concentration (TGI) with OVCAR-8 ovarian turned out to be 1830 µM; in the assay on HOP-92 NSCLC, 2010 µM; with M14 melanoma, 1580 µM; in the assay on RXF 393 renal, 1500 µM.
As to `Fc1cccc(F)c1C1SCc2nc3cc(Cl)c(Cl)cc3n21` (centres undefined), the TGI in the assay with IGROV1 ovarian, in the assay with LOX IMVI melanoma, with A549 NSCLC, in the assay on HS 578T breast, with MDA-MB-435 and with SK-MEL-2 melanoma was over 100 µM throughout. Further, the TGI in the assay on OVCAR-8 ovarian, with HOP-92 NSCLC, with M14 melanoma and in the assay on RXF 393 renal was over 100 µM each time.
Consider `O=c1c2c([nH]c3nccn13)CCC2`, for which the TGI in the assay with IGROV1 ovarian, in the assay on LOX IMVI melanoma, in the assay on A549 NSCLC, in the assay on HS 578T breast, in the assay on MDA-MB-435 and with SK-MEL-2 melanoma was over 10 µM in each case. The TGI in the assay with OVCAR-8 ovarian, with HOP-92 NSCLC, in the assay on M14 melanoma and with RXF 393 renal was over 10 µM throughout.
`COc1ccc(C(=O)Cn2c(C(=O)c3ccccc3)nc3ccccc32)cc1`: the GI50 with IGROV1 ovarian was 6.19 µM; with LOX IMVI melanoma, 5.18 µM; with A549 NSCLC, 6.05 µM; with HS 578T breast it was 2.81 µM; with MDA-MB-435 it was 0.304 µM; in the assay on OVCAR-8 ovarian, 10.2 µM. Besides, the GI50 is over 100 µM in the assay on HOP-92 NSCLC, 2.93 µM in the assay on M14 melanoma and 2.38 µM in the assay with RXF 393 renal. For the same compound, the TGI in the assay with IGROV1 ovarian is over 100 µM; in the assay on LOX IMVI melanoma, over 100 µM; with A549 NSCLC it was over 100 µM; with HS 578T breast, over 100 µM; in the assay with MDA-MB-435, 1.87 µM; in the assay with SK-MEL-2 melanoma it was over 100 µM. Further, the TGI with OVCAR-8 ovarian is over 100 µM; with HOP-92 NSCLC, over 100 µM; with M14 melanoma, over 100 µM; in the assay with RXF 393 renal, over 22.2 µM.
`CN(C)c1ccc(Nc2c3ccccc3nc3ccccc23)cc1`: the GI50 in the assay with IGROV1 ovarian is 0.59 µM; with LOX IMVI melanoma, 0.585 µM; with A549 NSCLC, 0.425 µM; in the assay on HS 578T breast, 1.65 µM; in the assay on MDA-MB-435, 0.685 µM; in the assay with SK-MEL-2 melanoma it was 0.821 µM. The GI50 was 0.868 µM with OVCAR-8 ovarian, 0.622 µM in the assay with HOP-92 NSCLC, 1.22 µM with M14 melanoma and 1.21 µM with RXF 393 renal. The TGI in the assay with IGROV1 ovarian is 2.91 µM; in the assay on LOX IMVI melanoma it was 2.26 µM; with A549 NSCLC it was 1.9 µM; with HS 578T breast it was 9.47 µM; in the assay with MDA-MB-435, 2.33 µM; in the assay on SK-MEL-2 melanoma, 2.83 µM. For the same compound, the total growth inhibition concentration (TGI) in the assay on OVCAR-8 ovarian was 3.25 µM; in the assay with HOP-92 NSCLC, 3.84 µM; in the assay on M14 melanoma, 2.61 µM; in the assay with RXF 393 renal, 2.61 µM.
Consider `COc1ccc(-c2c(C)c(C(=O)O)nc(-c3ccc4c(O)c(OC)c5c(c4n3)=NC(C)(C)N=5)c2N)c(O)c1OC`, for which the TGI in the assay on IGROV1 ovarian was over 100 µM; in the assay with LOX IMVI melanoma, 25.7 µM; with A549 NSCLC, 55.5 µM; in the assay with HS 578T breast it was over 100 µM; in the assay on MDA-MB-435, 30.7 µM; in the assay with SK-MEL-2 melanoma, 41.4 µM. Besides, the TGI with OVCAR-8 ovarian is 21.5 µM; in the assay with HOP-92 NSCLC, over 100 µM; with M14 melanoma it was 74.6 µM; in the assay with RXF 393 renal, 51.7 µM.
For `COC(=O)c1c2c(c(C)[n+]([O-])c1C)C(=O)C=C(NCc1ccccc1)C2=O`, the GI50 was 0.492 µM in the assay with IGROV1 ovarian; 0.34 µM in the assay with LOX IMVI melanoma; 1.1 µM in the assay with A549 NSCLC; 2.19 µM in the assay with HS 578T breast; 0.202 µM in the assay with MDA-MB-435; 1.25 µM with SK-MEL-2 melanoma. Besides, the GI50 in the assay on OVCAR-8 ovarian was 0.408 µM; in the assay with HOP-92 NSCLC, 2.17 µM; with M14 melanoma, 0.55 µM; in the assay on RXF 393 renal, 1.23 µM. Further, the total growth inhibition concentration (TGI) came to 1.87 µM with IGROV1 ovarian; 1.53 µM in the assay on LOX IMVI melanoma; 3.46 µM in the assay with A549 NSCLC; 6.88 µM in the assay with HS 578T breast; 0.391 µM in the assay on MDA-MB-435; 2.82 µM in the assay with SK-MEL-2 melanoma. The TGI in the assay with OVCAR-8 ovarian is 2.16 µM; in the assay on HOP-92 NSCLC, 4.37 µM; in the assay with M14 melanoma, 1.87 µM; in the assay with RXF 393 renal, 2.73 µM.
As to `CCCCC(SC(=S)N1CCCC1)C(=O)Nc1nc(CC(=O)OCC)cs1` (centres undefined), the GI50 with IGROV1 ovarian was 7.98 µM; with LOX IMVI melanoma it was 36.1 µM; in the assay on A549 NSCLC, 31.7 µM; in the assay with HS 578T breast, over 100 µM; in the assay with MDA-MB-435, 35.4 µM; with SK-MEL-2 melanoma, 36.1 µM. For the same compound, the GI50 in the assay on OVCAR-8 ovarian is 40.1 µM; in the assay on HOP-92 NSCLC, 36.6 µM; with M14 melanoma, 32.9 µM; in the assay with RXF 393 renal, 41.7 µM. Further, the TGI in the assay on IGROV1 ovarian, in the assay on LOX IMVI melanoma, in the assay with A549 NSCLC, with HS 578T breast, in the assay on MDA-MB-435 and with SK-MEL-2 melanoma was over 100 µM each time. The TGI with OVCAR-8 ovarian, in the assay on HOP-92 NSCLC, in the assay with M14 melanoma and in the assay on RXF 393 renal was over 100 µM each time.
On to `OCCCCC#Cc1ccccc1C#Cc1ccc(O)cc1`, for which the GI50 with IGROV1 ovarian was 9.56 µM; in the assay with LOX IMVI melanoma, 13.6 µM; in the assay on A549 NSCLC it was 15.8 µM; in the assay with HS 578T breast, 26.2 µM; with MDA-MB-435, 16.1 µM; in the assay with SK-MEL-2 melanoma, 20.8 µM. The GI50 with OVCAR-8 ovarian was 17.1 µM; in the assay on HOP-92 NSCLC, 17.4 µM; in the assay on M14 melanoma, 17.8 µM; in the assay with RXF 393 renal, 0.622 µM. The TGI in the assay with IGROV1 ovarian worked out at 22.8 µM; with LOX IMVI melanoma it was 27.7 µM; in the assay on A549 NSCLC it was 30.8 µM; in the assay with HS 578T breast it was 77.1 µM; in the assay with MDA-MB-435 it was 31 µM; in the assay on SK-MEL-2 melanoma it was 43 µM. For the same compound, the TGI worked out at 34.9 µM with OVCAR-8 ovarian, 36.2 µM with HOP-92 NSCLC, 36 µM with M14 melanoma and 22.4 µM with RXF 393 renal.
